Results taken from ChEMBL document CHEMBL4715789, “Identification of a Potential Antimalarial Drug Candidate from a Series of 2-Aminopyrazines by Optimization of Aqueous Solubility and Potency across the Parasite Life Cycle” (J Med Chem, 2016).
In brackets after ≈: the same amount, converted by molar mass.

Key:
[1] = Aqueous solubility of compound in pH 2 0.01M HCl incubated for 2 hrs under shaking condition by shake-flask method based HPLC-DAD analysis; format: physicochemical
Plasmodium falciparum [2] = assay: microbe, parasite or virus in culture; details: NF54, Erythrocyte
Description: Antiplasmodial activity against multidrug-sensitive Plasmodium falciparum NF54 infected in human erythrocytes assessed as reduction in [3H]hypoxanthine incorporation preincubated for 48 hrs followed by [3H]hypoxanthine addition and measured after 24 hrs by liquid scintillation counting method

[3] = Aqueous solubility of compound in pH 6.5 PBS incubated for 2 hrs under shaking condition by shake-flask method based HPLC-DAD analysis; format: physicochemical
Plasmodium berghei [4] = assay: Antiplasmodial activity against Plasmodium berghei ANKA infected in NMRI mouse assessed as reduction in parasitemia at 3 mg/kg, po qd for 4 consecutive days measured at day 7 post infection by flow cytometry analysis; format: functional; parameters: scale not given: the % may be the effect or the level left; details: time 4 day
Plasmodium berghei [5] = assay: Antiplasmodial activity against Plasmodium berghei ANKA infected in NMRI mouse model assessed as mean survival days at 3 mg/kg, po qd for 4 consecutive day; format: functional; details: time 4 day
Plasmodium falciparum [6] = assay: microbe, parasite or virus in culture; details: K1, Erythrocyte
Description: Antiplasmodial activity against multidrug-resistant Plasmodium falciparum K1 infected in erythrocytes assessed as reduction in [3H]hypoxanthine incorporation preincubated for 48 hrs followed by [3H]hypoxanthine addition and measured after 24 hrs by liquid scintillation counting method

hERG (KCNH2) = assay: Selectivity ratio of IC50 for inhibition of human ERG by IonWorks patch clamp electrophysiology method to IC50 for antiplasmodial activity against multidrug-sensitive Plasmodium falciparum NF54 infected in human erythrocytes; format: toxicity, cell-based; details: read-out: Ratio IC50
[7] = target: Voltage-gated inwardly rectifying potassium channel KCNH2 (Homo sapiens, UniProt Q12809); assay: Inhibition of human ERG by IonWorks patch clamp electrophysiology method
[8] = Metabolic stability in mouse liver microsomes assessed as compound remaining at 0.1 uM measured after 30 mins in presence of cofactor NADPH by LC-MS/MS analysis; format: ADME, Microsome; details: read-out: Stabilty
[9] = Metabolic stability in rat liver microsomes assessed as compound remaining at 0.1 uM measured after 30 mins in presence of cofactor NADPH by LC-MS/MS analysis; format: ADME, Microsome; details: read-out: Stabilty
[10] = Metabolic stability in human liver microsomes assessed as compound remaining at 0.1 uM measured after 30 mins in presence of cofactor NADPH by LC-MS/MS analysis; format: ADME, Microsome; details: read-out: Stabilty
[11] = AUC(app) in NMRI mouse plasma infected with Plasmodium berghei ANKA at 3 mg/kg, po qd for 4 consecutive days and measured post last dose; format: ADME, organism-based; details: time 4 day
[12] = Cmax(app) in NMRI mouse plasma infected with Plasmodium berghei ANKA at 3 mg/kg, po qd for 4 consecutive days and measured post last dose; format: ADME, organism-based; details: time 4 day
[13] = Apparent average plasma concentration in NMRI mouse plasma infected with Plasmodium berghei ANKA at 3 mg/kg, po qd for 4 consecutive days and measured post last dose; format: ADME, organism-based; details: in vivo, 96 h, time 4 day
Plasmodium berghei [14] = assay: Antiplasmodial activity against Plasmodium berghei ANKA infected in NMRI mouse model assessed as mean survival days at 10 mg/kg, po qd for 4 consecutive day; format: functional; details: time 4 day
Plasmodium berghei [15] = assay: Antiplasmodial activity against Plasmodium berghei ANKA infected in NMRI mouse assessed as reduction in parasitemia at 10 mg/kg, po qd for 4 consecutive days measured at day 7 post infection by flow cytometry analysis; format: functional; parameters: scale not given: the % may be the effect or the level left; details: time 4 day
[16] = Selectivity index, ratio of IC50 for cytotoxicity against CHO cells by MTT assay to IC50 for antiplasmodial activity against multidrug-sensitive Plasmodium falciparum NF54 infected in human erythrocytes; format: toxicity, cell-based; details: Chinese hamster, read-out: Ratio IC50

Chain of Voltage-gated inwardly rectifying potassium channel KCNH2 (Q12809 whole entry): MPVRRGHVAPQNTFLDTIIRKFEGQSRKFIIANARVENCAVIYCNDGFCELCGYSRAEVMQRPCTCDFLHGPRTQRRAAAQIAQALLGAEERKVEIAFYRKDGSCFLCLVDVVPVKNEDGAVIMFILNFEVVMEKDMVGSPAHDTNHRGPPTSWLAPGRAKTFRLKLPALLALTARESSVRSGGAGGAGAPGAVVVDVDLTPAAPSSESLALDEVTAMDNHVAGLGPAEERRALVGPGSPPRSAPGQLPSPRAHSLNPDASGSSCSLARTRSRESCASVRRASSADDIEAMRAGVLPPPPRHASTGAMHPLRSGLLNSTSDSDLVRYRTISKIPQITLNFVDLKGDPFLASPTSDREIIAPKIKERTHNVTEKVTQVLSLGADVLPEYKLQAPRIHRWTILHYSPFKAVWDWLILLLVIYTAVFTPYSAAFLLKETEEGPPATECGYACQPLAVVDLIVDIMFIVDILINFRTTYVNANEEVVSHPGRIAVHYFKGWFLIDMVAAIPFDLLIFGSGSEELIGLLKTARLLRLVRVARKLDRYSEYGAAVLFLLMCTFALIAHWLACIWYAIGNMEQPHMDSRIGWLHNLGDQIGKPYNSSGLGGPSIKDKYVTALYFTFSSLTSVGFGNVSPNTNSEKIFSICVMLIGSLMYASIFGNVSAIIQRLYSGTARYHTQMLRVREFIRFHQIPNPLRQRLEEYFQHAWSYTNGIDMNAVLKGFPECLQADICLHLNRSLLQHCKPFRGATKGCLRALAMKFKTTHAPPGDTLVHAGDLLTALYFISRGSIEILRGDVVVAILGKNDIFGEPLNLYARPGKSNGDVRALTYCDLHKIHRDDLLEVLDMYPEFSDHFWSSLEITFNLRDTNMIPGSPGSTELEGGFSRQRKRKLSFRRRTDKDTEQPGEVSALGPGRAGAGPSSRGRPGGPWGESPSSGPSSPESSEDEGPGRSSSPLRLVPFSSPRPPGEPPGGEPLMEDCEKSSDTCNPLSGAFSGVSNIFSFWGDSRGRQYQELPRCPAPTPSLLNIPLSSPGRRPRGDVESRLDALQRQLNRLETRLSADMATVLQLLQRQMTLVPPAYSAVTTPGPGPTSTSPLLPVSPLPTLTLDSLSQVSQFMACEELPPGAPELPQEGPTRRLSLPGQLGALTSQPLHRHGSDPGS

SMILES	solubility thermodynamic at 2 h [1]	IC50 (Plasmodium falciparum [2])	solubility thermodynamic at 2 h [3]	Activity (Plasmodium berghei [4])	MSD (Plasmodium berghei [5])	IC50 (Plasmodium falciparum [6])	selectivity ratio (hERG (KCNH2))	IC50 [7]	remaining at 0.5 h, 0.1 µM [8]	remaining at 0.5 h, 0.1 µM [9]	remaining at 0.5 h, 0.1 µM [10]	AUC at 96 h [11]	Cmax [12]	Cave [13]	MSD (Plasmodium berghei [14])	Activity (Plasmodium berghei [15])	selectivity ratio [16]
Nc1ncc(-c2ccc(C(=O)N3CCC(N)CC3)cc2)nc1-c1ccc(C(F)(F)F)cc1	200 µM (≈ 88.3 µg/mL)	10 nM	88 µM (≈ 38.8 µg/mL)	65%	7 days	7.5 nM											
Nc1ncc(-c2ccc(C(=O)N3CCC(N)C3)cc2)nc1-c1ccc(C(F)(F)F)cc1 (configuration not stated)	165 µM (≈ 70.5 µg/mL)	19 nM	102 µM (≈ 43.6 µg/mL)	71%	7 days	12 nM	526	10000 nM									
CNC(=O)c1ccc(-c2nc(-c3ccc(C(N)=O)cc3)cnc2N)cc1	186 µM (≈ 64.6 µg/mL)	52 nM	178 µM (≈ 61.8 µg/mL)			52 nM											
CN1CCCN(C(=O)c2ccc(-c3cnc(N)c(-c4ccc(C(F)(F)F)nc4)n3)cc2)CC1	200 µM (≈ 91.3 µg/mL)	15 nM	85 µM (≈ 38.8 µg/mL)		12 days	9.9 nM			> 90%	> 90%	> 90%						
Nc1ccc(-c2cnc(N)c(-c3ccc(C(F)(F)F)nc3)n2)cn1	199 µM (≈ 66.1 µg/mL)		34 µM (≈ 11.3 µg/mL)						> 90%	> 90%	> 90%						
Nc1ncc(-c2ccc(C(=O)N3CCC(N)C3)cc2)nc1-c1ccc(C(F)(F)F)nc1 (configuration not stated)	200 µM (≈ 85.7 µg/mL)	40 nM	116 µM (≈ 49.7 µg/mL)	47%	7 days	26 nM											
COC(=O)c1ccc(-c2cnc(N)c(-c3ccc(C(F)(F)F)cc3)n2)cc1	< 5 µM	2630 nM	< 5 µM														
NC(=O)c1ccc(-c2cnc(N)c(-c3ccc(C(F)(F)F)nc3)n2)nc1	123 µM (≈ 44.3 µg/mL)	1580 nM	< 5 µM														
Nc1ncc(-c2ccc(C(=O)N3CCCNCC3)cc2)nc1-c1ccc(C(F)(F)F)nc1	200 µM (≈ 88.5 µg/mL)	12.7 nM	146 µM (≈ 64.6 µg/mL)	55%	7 days	10.2 nM											
CC(C)(C)N1CCN(C(=O)c2ccc(-c3cnc(N)c(-c4ccc(C(F)(F)F)nc4)n3)cc2)CC1	200 µM (≈ 96.9 µg/mL)	8.9 nM	113 µM (≈ 54.8 µg/mL)	88%	14 days	6.4 nM						4.34 µM·h	1520 nM	570 nM			
Nc1ncc(-c2ccc(C(=O)N3CCC(O)C3)cc2)nc1-c1ccc(C(F)(F)F)nc1 (configuration not stated)	200 µM (≈ 85.9 µg/mL)	18 nM	155 µM (≈ 66.6 µg/mL)	61%	7 days	12 nM											
Nc1ncc(-c2ccc(C(=O)N3CCCNCC3)cc2)nc1-c1ccc(C(F)(F)F)cc1	190 µM (≈ 83.9 µg/mL)	7.7 nM	128 µM (≈ 56.5 µg/mL)	88%	11 days	6.3 nM											
CC(C)(C)N1CCN(C(=O)c2ccc(-c3cnc(N)c(-c4ccc(C(F)(F)F)cc4)n3)cc2)CC1	200 µM (≈ 96.7 µg/mL)	17 nM	95 µM (≈ 45.9 µg/mL)			11 nM		2000 nM									
NC(=O)c1ccc(-c2cnc(N)c(-c3ccc(C(N)=O)cc3)n2)cc1		25 nM				21 nM											
Nc1ncc(-c2ccc(C(=O)N3CCC(O)C3)cc2)nc1-c1ccc(C(F)(F)F)cc1 (configuration not stated)	129 µM (≈ 55.3 µg/mL)	9.6 nM	77 µM (≈ 33 µg/mL)	99.6%	8 days	6.8 nM			> 90%	> 90%	> 90%	34.7 µM·h	3610 nM	2060 nM			
Nc1ncc(-c2ccc(C(=O)N3CCNCC3)cc2)nc1-c1ccc(C(F)(F)F)nc1	200 µM (≈ 85.7 µg/mL)	9.1 nM	198 µM (≈ 84.8 µg/mL)	<40%		7.7 nM			> 90%	> 90%	> 90%						

SMILES	solubility thermodynamic at 2 h [1]	IC50 (Plasmodium falciparum [2])	solubility thermodynamic at 2 h [3]	Activity (Plasmodium berghei [4])	MSD (Plasmodium berghei [5])	IC50 (Plasmodium falciparum [6])	selectivity ratio (hERG (KCNH2))	IC50 [7]	remaining at 0.5 h, 0.1 µM [8]	remaining at 0.5 h, 0.1 µM [9]	remaining at 0.5 h, 0.1 µM [10]	AUC at 96 h [11]	Cmax [12]	Cave [13]	MSD (Plasmodium berghei [14])	Activity (Plasmodium berghei [15])	selectivity ratio [16]
N#Cc1ccc(-c2cnc(N)c(-c3ccc(C(F)(F)F)nc3)n2)nc1		2710 nM															
CN1CCN(C(=O)c2ccc(-c3cnc(N)c(-c4ccc(C(F)(F)F)nc4)n3)cc2)CC1	200 µM (≈ 88.5 µg/mL)	9.9 nM	182 µM (≈ 80.5 µg/mL)	81%	7 days	9.9 nM			> 90%	> 90%	> 90%				8 days		
Nc1ncc(-c2ccc(C(=O)N3CC[C@H](O)C3)cc2)nc1-c1ccc(C(F)(F)F)cc1	93 µM (≈ 39.8 µg/mL)	6 nM	68 µM (≈ 29.1 µg/mL)		8 days				> 90%	> 90%	> 90%				16 days	100%	
CN1CCCN(C(=O)c2ccc(-c3cnc(N)c(-c4ccc(C(F)(F)F)cc4)n3)cc2)CC1	200 µM (≈ 91.1 µg/mL)	6.8 nM	152 µM (≈ 69.2 µg/mL)	90%	7 days	5.7 nM		5000 nM									
N#Cc1ccc(-c2cnc(N)c(-c3ccc(C(N)=O)cc3)n2)cc1		57 nM				44 nM											
Nc1ccc(-c2nc(-c3ccc(C(=O)N4CCNCC4)cc3)cnc2N)cn1	189 µM (≈ 71 µg/mL)	51 nM	186 µM (≈ 69.8 µg/mL)			37 nM											
Nc1ncc(-c2ccc(C(F)(F)F)nc2)nc1-c1ccc(C(F)(F)F)nc1									> 90%	> 90%	> 90%						
CN1CCN(C(=O)c2ccc(-c3cnc(N)c(-c4ccc(C(F)(F)F)cc4)n3)cc2)CC1		7.9 nM			12 days	6.8 nM			> 90%	> 90%	> 90%		1600 nM		26 days		
Nc1ccc(-c2cnc(N)c(-c3ccc(N)nc3)n2)cn1		203 nM				143 nM			> 90%	> 90%	> 90%						
N#Cc1ccc(-c2cnc(N)c(-c3ccc(N)nc3)n2)cc1	208 µM (≈ 60 µg/mL)	222 nM	< 5 µM			149 nM			> 90%	> 90%	> 90%						
NC(=O)c1ccc(-c2cnc(N)c(-c3ccc(C(F)(F)F)nc3)n2)cn1	7 µM (≈ 2.52 µg/mL)	5.2 nM	5 µM (≈ 1.8 µg/mL)	97.5%	7 days	7.2 nM			> 90%	> 90%	> 90%				14 days	99.9%	> 1800
CS(=O)(=O)c1ccc(-c2cnc(N)c(-c3ccc(N)nc3)n2)cc1	206 µM (≈ 70.3 µg/mL)	38 nM	149 µM (≈ 50.9 µg/mL)			27 nM			> 90%	> 90%	> 90%						
NC(=O)c1ccc(-c2cnc(N)c(-c3ccc(C(F)(F)F)nc3)n2)cc1	< 5 µM	20 nM	< 5 µM		7.7 days	16 nM			> 90%	> 90%	> 90%	69.3 µM·h	5000 nM	2900 nM	14 days		
Nc1ccc(-c2nc(-c3ccc(S(=O)(=O)C4CC4)cc3)cnc2N)cn1	212 µM (≈ 77.9 µg/mL)	38 nM	13 µM (≈ 4.78 µg/mL)			44 nM			> 90%	> 90%	> 90%						
Nc1ncc(-c2ccc(C(=O)N3CCC(N)CC3)cc2)nc1-c1ccc(C(F)(F)F)nc1	200 µM (≈ 88.5 µg/mL)	20 nM	163 µM (≈ 72.1 µg/mL)	41%	6 days	18 nM											
